From patent US12570662B2, “Substituted pyrrolo[1,2-b]pyridazines as bifunctional degraders of interleukin-1 receptor-associated kinases” (Nurix Therapeutics, Inc., priority 2021, dated 2026)

Target: T1, IRAK4 (Homo sapiens, UniProt Q9NWZ3)
T1 construct: C-terminal HiBiT-tagged Jurkat cells (polyclonal cell line or clone 8D5); endogenous in cells; host or cells: Jurkat cells (polyclonal cell line or clone 8D5), HiBiT-tagged
T1 sequence (Q9NWZ3 1-460): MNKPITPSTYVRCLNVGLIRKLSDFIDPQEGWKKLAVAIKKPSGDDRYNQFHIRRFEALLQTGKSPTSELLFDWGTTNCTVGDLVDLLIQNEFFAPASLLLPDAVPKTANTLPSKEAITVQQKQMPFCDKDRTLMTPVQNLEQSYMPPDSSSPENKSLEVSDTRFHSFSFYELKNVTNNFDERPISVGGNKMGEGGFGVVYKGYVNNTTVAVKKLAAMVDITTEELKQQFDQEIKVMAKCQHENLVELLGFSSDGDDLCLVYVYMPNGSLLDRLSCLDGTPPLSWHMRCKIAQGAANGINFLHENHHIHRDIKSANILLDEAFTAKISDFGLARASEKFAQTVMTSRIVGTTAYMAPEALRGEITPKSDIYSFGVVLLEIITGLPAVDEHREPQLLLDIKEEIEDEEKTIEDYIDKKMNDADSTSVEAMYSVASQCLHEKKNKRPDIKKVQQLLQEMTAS
Experiment: IRAK4 Degradation HiBit Assay
Format: cell-based
Details: C-terminal HiBiT-tagged Jurkat cells, 4 hrs incubation; for DC50: % IRAK4 remaining, four-parameter fit (IC50 used as DC50); for Dmax: from fit of % IRAK4 remaining, read-out: Dmax
Experimental: Compound dilution series (11-point, 3.16-fold dilutions in DMSO, columns 1-11 and 12-22) at 500× the final required concentrations were prepared in Labcyte LDV 384-well plates (cat. no. LP-0200) using a Labcyte Echo 550 Liquid Handler. The 500× solutions ranged from 5 mM to 0.5 μM (final assay concentration range 10 μM to 0.1 nM). Using the Echo, the 500× solutions were stamped into white, 384-well assay plates (Corning, cat. no. 3570) at 60 nL/well. The following assay plate controls were also stamped at 60 nL/well: DMSO in wells E23-P23 (NC, Negative Control, maximum signal), 5 mM solution control compound al in wells A23-D23 and M24-P24 (AC, Active Control, minimum signal/background, 10 μM final assay concentration), control compound al dilution series in wells […] (12-point, 4-fold dilutions). C-terminal HiBiT-tagged Jurkat cells (polyclonal cell line or clone 8D5) were plated at 1×10^6 cells/mL, 30 μL/well (3×10^4 cells/well) in complete RPMI (10% FBS, 1% L-glutamine). Cells were incubated for 4 hrs at 32° C./6% CO2. Compound al has the following structure:
Following incubation, 30 μL of complete Nano-Glo HiBiT Lytic Detection Reagent (Nano-Glo HiBiT Lytic Buffer with 1:50 Nano-Glo HiBiT Lytic Substrate and 1:100 LgBiT Protein; Promega cat. no. N3040) was added. Cells were further incubated for 10 min at room temperature (RT). Luminescence units (LU) were read on an EnVision plate reader (Perkin Elmer, 0.1 sec per well). Percent IRAK4 remaining per sample was calculated as follows: […]
Using Graphpad Prism, % IRAK4 remaining values were plotted as a function of compound concentration. To determine DC50 and Dmax values, resulting curves were fit to the Prism curve-fitting equation “log (inhibitor) vs response-Variable slope (four parameters)” (reported best fit value IC50 used as DC50). Table 1 summarizes the biological data of Compounds of Examples 1-137 and 142-145 obtained from the assays described herein.

SMILES: N#Cc1cnn2c(-c3cc(NC4CC4)c(-c4nnc(N5CCN(CC6CCN(c7ccc(C8CCC(=O)NC8=O)cc7)CC6)CC5)s4)cn3)ccc2c1 (racemic) [Example 77, rac-7-[4-(cyclopropylamino)-5-(5-{4-[(1-{4-[(3R)-2,6-dioxopiperidin-3-yl]phenyl}piperidin-4-yl)methyl]piperazin-1-yl}-1,3,4-thiadiazol-2-yl)pyridin-2-yl]pyrrolo[1,2-b]pyridazine-3-carbonitrile]
- DC50: 53 nM
- Dmax: 90%

SMILES: N#Cc1cnn2c(-c3cc(NC4CCOCC4)c(-c4nnc(N5CCN(CC6CCN(c7cncc(C8CCC(=O)NC8=O)c7)CC6)CC5)s4)cn3)ccc2c1 (racemic) [Example 11, rac-7-[5-(5-{4-[(1-{5-[(3R)-2,6-dioxopiperidin-3-yl]pyridin-3-yl}piperidin-4-yl)methyl]piperazin-1-yl}-1,3,4-thiadiazol-2-yl)-4-[(oxan-4-yl)amino]pyridin-2-yl]pyrrolo[1,2-b]pyridazine-3-carbonitrile]
- DC50: 32 nM
- Dmax: 77%

SMILES: N#Cc1cnn2c(-c3cc(N[C@@H]4CCOC4)c(-c4nnc(N5CC6CCC(C5)N6CC5CCN(c6ccc([C@@H]7CCC(=O)NC7=O)cn6)CC5)s4)cn3)ccc2c1 (single isomer, unassigned) [Example 124]
- DC50: 8 nM
- Dmax: 110%

SMILES: CNc1cc(-c2ccc3cc(C#N)cnn23)ncc1-c1nnc(N2CCC(C3CCN(CC4CCN(c5ccc(C6CCC(=O)NC6=O)cn5)CC4)CC3)CC2)s1 (racemic) [Example 54, rac-7-[5-(5-{1′-[(1-{5-[(3R)-2,6-dioxopiperidin-3-yl]pyridin-2-yl}piperidin-4-yl)methyl]-[4,4′-bipiperidin]-1-yl}-1,3,4-thiadiazol-2-yl)-4-(methylamino)pyridin-2-yl]pyrrolo[1,2-b]pyridazine-3-carbonitrile]
- DC50: 95 nM
- Dmax: 112%

SMILES: N#Cc1cnn2c(-c3cc(N[C@@H]4CCOC4)c(-c4nnc(N5CC6CCC(C5)N6CC5CCN(c6ccc(C7CCC(=O)NC7=O)cn6)CC5)s4)cn3)ccc2c1 (mixture of isomers) [Example 94, 7-[5-(5-{8-[(1-{5-[(3RS)-2,6-dioxopiperidin-3-yl]pyridin-2-yl}piperidin-4-yl)methyl]-3,8-diazabicyclo[3.2.1]octan-3-yl}-1,3,4-thiadiazol-2-yl)-4-{[(3R)-oxolan-3-yl]amino}pyridin-2-yl]pyrrolo[1,2-b]pyridazine-3-carbonitrile]
- DC50: 10 nM
- Dmax: 114%

SMILES: CNc1cc(-c2ccc3cc(C#N)cnn23)ncc1-c1nnc(C23CCC(C(=O)N4CCN(c5ccc(C6CCC(=O)NC6=O)cn5)CC4)(CC2)CC3)s1 (racemic) [Example 27, rac-7-(5-{5-[4-(4-{5-[(3R)-2,6-dioxopiperidin-3-yl]pyridin-2-yl}piperazine-1-carbonyl)bicyclo[2.2.2]octan-1-yl]-1,3,4-thiadiazol-2-yl}-4-(methylamino)pyridin-2-yl)pyrrolo[1,2-b]pyridazine-3-carbonitrile]
- DC50: 12 nM
- Dmax: 101%

SMILES: N#Cc1cnn2c(-c3cc(NC4CCOCC4)c(-c4nnc(N5CCN(C(=O)[C@H]6CCN(c7ccc([C@@H]8CCC(=O)NC8=O)cn7)C6)CC5)s4)cn3)ccc2c1 (racemic) [Example 17, 7-[5-(5-{4-[(3RS)-1-{5-[(3RS&)-2,6-dioxopiperidin-3-yl]pyridin-2-yl}pyrrolidine-3-carbonyl]piperazin-1-yl}-1,3,4-thiadiazol-2-yl)-4-[(oxan-4-yl)amino]pyridin-2-yl]pyrrolo[1,2-b]pyridazine-3-carbonitrile]
- DC50: 12 nM
- Dmax: 100%

SMILES: N#Cc1cnn2c(-c3cc(NC4CCOCC4)c(-c4nnc(N5CC6CCC(C5)N6CC5CCN(c6ccc(N7CCC(=O)NC7=O)cn6)CC5)s4)cn3)ccc2c1 [Example 86, 7-(5-{5-[8-({1-[5-(2,4-dioxo-1,3-diazinan-1-yl)pyridin-2-yl]piperidin-4-yl}methyl)-3,8-diazabicyclo[3.2.1]octan-3-yl]-1,3,4-thiadiazol-2-yl}-4-[(oxan-4-yl)amino]pyridin-2-yl)pyrrolo[1,2-b]pyridazine-3-carbonitrile]
- DC50: 12 nM
- Dmax: 111%

SMILES: N#Cc1cnn2c(-c3cc(NC4CCOCC4)c(-c4nnc(N5CC6CCC(C5)N6C[C@H]5CC[C@H](Oc6ccc([C@@H]7CCC(=O)NC7=O)cn6)CC5)s4)cn3)ccc2c1 (racemic) [Example 108, 7-{4-[(oxan-4-yl)amino]-5-[5-(8-{[(1r,4r)-4-({5-[(3RS)-2,6-dioxopiperidin-3-yl]pyridin-2-yl}oxy)cyclohexyl]methyl}-3,8-diazabicyclo[3.2.1]octan-3-yl)-1,3,4-thiadiazol-2-yl]pyridin-2-yl}pyrrolo[1,2-b]pyridazine-3-carbonitrile]
- DC50: 40 nM
- Dmax: 87%

SMILES: N#Cc1cnn2c(-c3cc(NC4CCOCC4)c(-c4nnc(N5CCN(CC6CCN(c7ccc(C8CCC(=O)NC8=O)cc7F)CC6)CC5)s4)cn3)ccc2c1 (racemic) [Example 4, rac-7-[5-(5-{4-[(1-{4-[(3R)-2,6-dioxopiperidin-3-yl]-2-fluorophenyl}piperidin-4-yl)methyl]piperazin-1-yl}-1,3,4-thiadiazol-2-yl)-4-[(oxan-4-yl)amino]pyridin-2-yl]pyrrolo[1,2-b]pyridazine-3-carbonitrile]
- DC50: 65 nM
- Dmax: 90%

SMILES: CNc1cc(-c2ccc3cc(C#N)cnn23)ncc1-c1nnc(N2CCN(CC3CCN(c4ccc([C@H]5CCC(=O)NC5=O)cn4)CC3)CC2)s1 (single isomer, unassigned) [Example 41]
- DC50: 1050 nM
- Dmax: 83%

SMILES: N#Cc1cnn2c(-c3cc(NC4CCOCC4)c(-c4nnc(N5CCN(CC6CCN(c7ccc(C8CCC(=O)NC8=O)cn7)CC6)CC5)s4)cn3)ccc2c1 (racemic) [Example 43, 7-(5-{5-[4-({1-[5-(2,6-dioxopiperidin-3-yl)pyridin-2-yl]piperidin-4-yl}methyl)piperazin-1-yl]-1,3,4-thiadiazol-2-yl}-4-(oxan-4-ylamino)pyridin-2-yl)pyrrolo[1,2-b]pyridazine-3-carbonitrile]
- DC50: 14 nM
- Dmax: 111%

SMILES: N#Cc1cnn2c(-c3cc(NC4CC4)c(-c4nnc(N5CCN(CC6CCN(c7ccc([C@@H]8CCC(=O)NC8=O)cc7)CC6)CC5)s4)cn3)ccc2c1 (single isomer, unassigned) [Example 120]
- DC50: 68 nM
- Dmax: 109%

SMILES: N#Cc1cnn2c(-c3cc(NC4COC4)c(-c4nnc(N5CCN(CC6CCN(c7ccc(C8CCC(=O)NC8=O)cn7)CC6)CC5)s4)cn3)ccc2c1 (racemic) [Example 61, rac-7-[5-(5-{4-[(1-{5-[(3R)-2,6-dioxopiperidin-3-yl]pyridin-2-yl}piperidin-4-yl)methyl]piperazin-1-yl}-1,3,4-thiadiazol-2-yl)-4-[(oxetan-3-yl)amino]pyridin-2-yl]pyrrolo[1,2-b]pyridazine-3-carbonitrile]
- DC50: 18 nM
- Dmax: 111%

SMILES: N#Cc1cnn2c(-c3cc(N[C@@H]4CCOC4)c(-c4nnc(N5CC6CCC(C5)N6CC5CCN(c6ccc([C@@H]7CCC(=O)NC7=O)cc6)CC5)s4)cn3)ccc2c1 (single isomer, unassigned) [Example 131]
- DC50: 21 nM
- Dmax: 110%

SMILES: N#Cc1cnn2c(-c3cc(NC4CC4)c(-c4nnc(N5CCN(CC6CCN(c7ccc(N8CCC(=O)NC8=O)cn7)CC6)CC5)s4)cn3)ccc2c1 [Example 78, 7-[4-(cyclopropylamino)-5-{5-[4-({1-[5-(2,4-dioxo-1,3-diazinan-1-yl)pyridin-2-yl]piperidin-4-yl}methyl)piperazin-1-yl]-1,3,4-thiadiazol-2-yl}pyridin-2-yl]pyrrolo[1,2-b]pyridazine-3-carbonitrile]
- DC50: 19 nM
- Dmax: 111%

SMILES: C[C@@H](C#N)Nc1cc(-c2ccc3cc(C#N)cnn23)ncc1-c1nnc(N2CC3CCC(C2)N3CC2CCN(c3ccc([C@H]4CCC(=O)NC4=O)cn3)CC2)s1 (single isomer, unassigned) [Example 143]
- DC50: 72 nM
- Dmax: 99%
